Test results as given in patent publication US20110098300A1, “Compounds Comprising A Cyclobutoxy Group” (UCB PHARMA, S.A., priority 2008, published 2011).

melting point [°C] | Structure (SMILES)
135 to 136 | O=C(c1ccc(O[C@H]2C[C@H](N3CCCCC3)C2)cc1)N1CCOCC1 [Compound 1, 4-{4-[(trans-3-piperidin-1-ylcyclobutyl)oxy]benzoyl}morpholine]
145 to 146 | O=C(c1ccc(O[C@H]2C[C@H](N3CCCCC3)C2)cc1)N1CCC(F)(F)CC1 [Compound 2, 4,4-difluoro-1-{4-[(trans-3-piperidin-1-ylcyclobutyl)oxy]benzoyl}piperidine]
101.1 to 102.2 | O=C(c1ccc(O[C@H]2C[C@H](N3CCCCC3)C2)cc1)N1CCCCC1 [Compound 3, 1-{trans-3-[4-(piperidin-1-ylcarbonyl)phenoxy]cyclobutyl}piperidine]
98.5 to 99 | CC(C)N1CCN(C(=O)c2ccc(O[C@H]3C[C@H](N4CCCCC4)C3)cc2)CC1 [Compound 4, 1-isopropyl-4-{4-[(trans-3-piperidin-1-ylcyclobutyl)oxy]benzoyl}piperazine]
57.4 to 57.8 | O=C(c1ccc(O[C@H]2C[C@H](N3CCCCC3)C2)cc1)N1CCC(O)CC1 [Compound 5, 1-{4-[(trans-3-piperidin-1-ylcyclobutyl)oxy]benzoyl}piperidin-4-ol]
186.5 to 186.9 | O=C(c1ccc(O[C@H]2C[C@H](N3CCCCC3)C2)cc1)N1CCS(=O)(=O)CC1 [Compound 8, 4-{4-[(trans-3-piperidin-1-ylcyclobutyl)oxy]benzoyl}thiomorpholine 1,1-dioxide]
115.2 to 115.8 | O=C(c1ccc(O[C@H]2C[C@H](N3CCCCC3)C2)cc1)N1CCC(F)(F)C1 [Compound 9, 1-(trans-3-{4-[(3,3-difluoropyrrolidin-1-yl)carbonyl]phenoxy}cyclobutyl)piperidine]
159.2 to 159.8 | CC(=O)N1CCN(C(=O)c2ccc(O[C@H]3C[C@H](N4CCCCC4)C3)cc2)CC1 [Compound 10, 1-acetyl-4-{4-[(trans-3-piperidin-1-ylcyclobutyl)oxy]benzoyl}piperazine]
82.2 to 82.4 | O=C(c1ccc(O[C@H]2C[C@H](N3CCCCC3)C2)cc1)N1CC(O)C1 [Compound 11, 1-{4-[(trans-3-piperidin-1-ylcyclobutyl)oxy]benzoyl}azetidin-3-ol]
151.6 | O=C(Nc1cnccc1Cl)c1ccc(O[C@H]2C[C@H](N3CCCCC3)C2)cc1 [Compound 12, N-(4-chloropyridin-3-yl)-4-[(trans-3-piperidin-1-ylcyclobutyl)oxy]benzamide]
152.9 to 153.4 | O=C(NCC(F)(F)F)c1ccc(O[C@H]2C[C@H](N3CCCCC3)C2)cc1 [Compound 13, 4-[(trans-3-piperidin-1-ylcyclobutyl)oxy]-N-(2,2,2-trifluoroethyl)benzamide]
